From BindingDB's records for doi:10.7270/Q21J98DJ (The Scripps Research Institute Molecular Screening Center, 2014)

Biological target: Disintegrin and metalloproteinase domain-containing protein 17 (Homo sapiens, UniProt P78536)
Test: exosite inhibitors of ADAM17, dose response, biochemical (AID 743260)

Sequence of Disintegrin and metalloproteinase domain-containing protein 17 (P78536 whole entry, the tested form may be a part): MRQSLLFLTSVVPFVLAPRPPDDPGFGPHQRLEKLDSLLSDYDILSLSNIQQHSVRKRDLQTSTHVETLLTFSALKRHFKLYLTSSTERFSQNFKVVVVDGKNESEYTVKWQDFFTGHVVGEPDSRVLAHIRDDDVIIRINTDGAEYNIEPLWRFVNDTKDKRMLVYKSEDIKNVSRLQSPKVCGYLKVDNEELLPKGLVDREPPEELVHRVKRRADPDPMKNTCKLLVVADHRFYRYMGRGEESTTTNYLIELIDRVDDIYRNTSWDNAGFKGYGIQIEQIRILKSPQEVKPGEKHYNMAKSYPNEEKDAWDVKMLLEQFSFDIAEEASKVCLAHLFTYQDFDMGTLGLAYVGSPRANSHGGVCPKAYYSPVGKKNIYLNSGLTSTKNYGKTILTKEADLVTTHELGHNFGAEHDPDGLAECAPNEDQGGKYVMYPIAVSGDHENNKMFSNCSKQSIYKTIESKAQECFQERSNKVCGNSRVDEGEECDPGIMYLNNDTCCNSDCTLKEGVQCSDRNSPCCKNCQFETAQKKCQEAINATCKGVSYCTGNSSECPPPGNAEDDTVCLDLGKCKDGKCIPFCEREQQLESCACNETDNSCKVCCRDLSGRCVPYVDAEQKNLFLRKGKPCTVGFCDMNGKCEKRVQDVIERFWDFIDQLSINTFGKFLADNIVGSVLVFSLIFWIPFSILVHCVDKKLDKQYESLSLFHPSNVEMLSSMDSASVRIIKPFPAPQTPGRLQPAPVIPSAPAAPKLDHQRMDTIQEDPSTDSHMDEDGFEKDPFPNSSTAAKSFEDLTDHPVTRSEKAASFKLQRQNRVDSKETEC

IC50 [µM]	SMILES
5.73	CCOc1ccc(NC(=O)Cc2sc(=O)n(-c3ccccc3)c2O)cc1
69.5	Cn1c(-c2sccc2OCc2ccc(Cl)cc2Cl)n[nH]c1=S
46.7	O=C(Cc1sc(=O)n(-c2ccccc2)c1O)Nc1ccccc1 [2-(2,4-diketo-3-phenyl-thiazolidin-5-yl)-N-phenyl-acetamide]
69.5	COc1cccc(C2c3oc(CO)cc(=O)c3OC(=N)C2C#N)c1 (stereo not drawn) [2-Amino-6-hydroxymethyl-4-(3-methoxy-phenyl)-8-oxo-4,8-dihydro-pyrano[3,2-b]pyran-3-carbonitrile]
69.5	COc1ccc(NC(=O)c2oc3ccccc3c2NC(=O)C(C)(C)C)cc1 [3-(2,2-dimethylpropanoylamino)-N-(4-methoxyphenyl)-1-benzofuran-2-carboxamide]
69.5	CCOc1cc(C(c2c(C)[nH][nH]c2=O)c2c(C)[nH][nH]c2=O)ccc1O [4-[(3-ethoxy-4-hydroxyphenyl)-(3-methyl-5-oxo-1,2-dihydropyrazol-4-yl)methyl]-5-methyl-1,2-dihydropyrazol-3-one]
69.5	Cc1cccc(NNC2=c3cc(Br)ccc3=NC2=O)c1 [5-bromo-3-[2-(3-methylphenyl)hydrazinyl]indol-2-one]
17	C=c1cc(O)c(CN(C)C)c2oc(=Cc3ccco3)c(O)c12 [(2Z)-7-[(dimethylamino)methyl]-2-(furan-2-ylmethylidene)-6-hydroxy-4-methyl-1-benzofuran-3-one]
69.5	CC1CCCN(CCCNC(=O)c2coc3nc4ccccc4nc23)C1 (stereo not drawn) [MLS000046706]
69.5	O=C1OCCN1C(=O)C1=[N+](c2ccc(Br)cc2)N[C-](c2ccccc2)[C@H]1c1ccc([N+](=O)[O-])cc1 [SMR000327268]
69.5	CC(=NNC(=N)Sc1cc(O)n(-c2ccc(Br)cc2)c1O)c1cccs1 [[1-(4-bromophenyl)-2,5-bis(oxidanylidene)pyrrolidin-3-yl] N''-(1-thiophen-2-ylethylideneamino)carbamimidothioate]
69.5	CC(=NNC(=N)Sc1cc(O)n(-c2ccccc2)c1O)c1cccs1 [[2,5-bis(oxidanylidene)-1-phenyl-pyrrolidin-3-yl] N'-[(E)-1-thiophen-2-ylethylideneamino]carbamimidothioate]
69.5	COC(=O)c1cccc(Cn2c(Cl)c(CN=Nc3ccccc3C)sc2=O)c1 [methyl 3-[[4-chloro-5-[[(2-methylphenyl)hydrazinylidene]methyl]-2-oxo-1,3-thiazol-3-yl]methyl]benzoate]
